Measured values published in PMC10648927, “Examining the activity of cefepime-taniborbactam against Burkholderia cepacia complex and Burkholderia gladioli isolated from cystic fibrosis patients in the United States” (Antimicrobial Agents and Chemotherapy, 2023).
In brackets after ≈: the same amount, converted by molar mass.

Experiments:
Parameters in all cases: agar dilution MIC, growth inhibition of clinical Burkholderia isolates
B. ambifaria AU19862 = system: T1, B. ambifaria AU19862; assay: microbe, parasite or virus in culture; conditions: Burkholderia ambifaria, AU19862
T1 construct: AU19862
Excerpt: (§1) We evaluated the activity of cefepime-taniborbactam against a panel of 140 Bcc clinical isolates (i.e., species ambifaria, arboris, cenocepacia, cepacia, contaminans, diffusa, dolosa, multivorans, pseudomultivorans, pyrrocinia, seminalis, stabilis, ubonensis, and vietnamiensis) and 10 B. gladioli from the Burkholderia cepacia Research Laboratory and Repository (University of Michigan) ([22], [25], [31]) (Supplementary Material, Tables S1 and S2). K. pneumoniae ATCC 700603 carrying bla SHV-18 and K. pneumoniae ATCC BAA-1705 harboring bla KPC strains were used as controls for β-lactam and β-lactamase inhibitor integrity; all controls tested within the anticipated quality control ranges (Table S3). Minimum inhibitory concentration (MIC) results were interpreted using Clinical Laboratory Standards Institute (CLSI) breakpoints, where available ([32]). […] An alternative cefepime-taniborbactam provisional susceptible breakpoint of ≤16 µg/mL is supported by in vivo efficacy data from neutropenic murine infection models (thigh, complicated urinary tract, and lung) ([15] [–] [17]) and data from safety and pharmacokinetics studies in human volunteers ([33], [34]). The cefepime-taniborbactam antimicrobial activity was compared to cefepime, meropenem, meropenem-vaborbactam, and levofloxacin, to data published for first-line agents (e.g., ceftazidime and trimethoprim-sulfamethoxazole) and to those recommended by the CLSI for clinical testing (e.g., minocycline) against the Bcc and B. gladioli panel ([22], [32]). Of note, the MICs of all these agents were determined by the agar dilution method, which alongside broth microdilution, are recommended by the CLSI to assess the antimicrobial susceptibility of Bcc isolates ([32]).

B. ambifaria AU11161 = system: T2, B. ambifaria AU11161; assay: microbe, parasite or virus in culture; conditions: Burkholderia ambifaria, AU11161
T2 construct: AU11161
Excerpt: as §1

[1] = system: T3, Burkholderia cepacia complex Bcc Indeterminate AU12848; assay: microbe, parasite or virus in culture; conditions: Burkholderia cepacia
T3 construct: AU12848
Excerpt: as §1

B. diffusa AU19637 = system: T4, B. diffusa AU19637; assay: organism not typed
T4 construct: AU19637
Excerpt: as §1

B. cenocepacia AU10321 = system: T5, B. cenocepacia AU10321; assay: microbe, parasite or virus in culture; conditions: Burkholderia cenocepacia, AU10321
T5 construct: AU10321
Excerpt: as §1

B. multivorans AU11772 = system: T6, B. multivorans AU11772; assay: microbe, parasite or virus in culture; conditions: Burkholderia multivorans, AU11772
T6 construct: AU11772
Excerpt: as §1

B. cenocepacia AU14093 = system: T7, B. cenocepacia AU14093; assay: microbe, parasite or virus in culture; conditions: Burkholderia cenocepacia, AU14093
T7 construct: AU14093
Excerpt: as §1

B. cenocepacia AU20902 = system: T8, B. cenocepacia AU20902; assay: microbe, parasite or virus in culture; conditions: Burkholderia cenocepacia, AU20902
T8 construct: AU20902
Excerpt: as §1

B. multivorans AU14786 = system: T9, B. multivorans AU14786; assay: microbe, parasite or virus in culture; conditions: Burkholderia multivorans, AU14786
T9 construct: AU14786
Excerpt: as §1

B. multivorans AU23365 = system: T10, B. multivorans AU23365; assay: microbe, parasite or virus in culture; conditions: Burkholderia multivorans, AU23365
T10 construct: AU23365
Excerpt: as §1

B. ambifaria AU20319 = system: T11, B. ambifaria AU20319; assay: microbe, parasite or virus in culture; conditions: Burkholderia ambifaria, AU20319
T11 construct: AU20319
Excerpt: as §1

[2] = system: T12, Burkholderia cepacia complex Bcc Indeterminate AU18117; assay: microbe, parasite or virus in culture; conditions: Burkholderia cepacia
T12 construct: AU18117
Excerpt: as §1

B. multivorans AU30441 = system: T13, B. multivorans AU30441; assay: microbe, parasite or virus in culture; conditions: Burkholderia multivorans, AU30441
T13 construct: AU30441
Excerpt: as §1

B. multivorans AU11204 = system: T14, B. multivorans AU11204; assay: microbe, parasite or virus in culture; conditions: Burkholderia multivorans, AU11204
T14 construct: AU11204
Excerpt: as §1

B. cenocepacia AU8635 = system: T15, B. cenocepacia AU8635; assay: microbe, parasite or virus in culture; conditions: Burkholderia cenocepacia, AU8635
T15 construct: AU8635
Excerpt: as §1

B. cepacia AU13163 = system: T16, B. cepacia AU13163; assay: microbe, parasite or virus in culture; conditions: Burkholderia cepacia, AU13163
T16 construct: AU13163
Excerpt: as §1

B. multivorans AU16734 = system: T17, B. multivorans AU16734; assay: microbe, parasite or virus in culture; conditions: Burkholderia multivorans, AU16734
T17 construct: AU16734
Excerpt: as §1

B. cenocepacia AU28111 = system: T18, B. cenocepacia AU28111; assay: microbe, parasite or virus in culture; conditions: Burkholderia cenocepacia, AU28111
T18 construct: AU28111
Excerpt: as §1

B. contaminans AU20979 = system: T19, B. contaminans AU20979; assay: organism not typed
T19 construct: AU20979
Excerpt: as §1

B. contaminans AU15669 = system: T20, B. contaminans AU15669; assay: organism not typed
T20 construct: AU15669
Excerpt: as §1

B. multivorans AU25057 = system: T21, B. multivorans AU25057; assay: microbe, parasite or virus in culture; conditions: Burkholderia multivorans, AU25057
T21 construct: AU25057
Excerpt: as §1

B. multivorans AU22892 = system: T22, B. multivorans AU22892; assay: microbe, parasite or virus in culture; conditions: Burkholderia multivorans, AU22892
T22 construct: AU22892
Excerpt: as §1

Compound: CO/N=C(\C(=O)N[C@@H]1C(=O)N2C(C(=O)[O-])=C(C[N+]3(C)CCCC3)CS[C@H]12)c1csc(N)n1 [cefepime]
- MIC (B. ambifaria AU19862): 16 µg/mL (≈ 33.3 µM)
- MIC (B. ambifaria AU11161): > 32 µg/mL
- MIC [1]: > 32 µg/mL
- MIC (B. diffusa AU19637): 32 µg/mL (≈ 66.6 µM)
- MIC (B. cenocepacia AU10321): > 32 µg/mL
- MIC (B. multivorans AU11772): > 32 µg/mL
- MIC (B. cenocepacia AU14093): > 32 µg/mL
- MIC (B. cenocepacia AU20902): 16 µg/mL (≈ 33.3 µM)
- MIC (B. multivorans AU14786): > 32 µg/mL
- MIC (B. multivorans AU23365): > 32 µg/mL
- MIC (B. ambifaria AU20319): > 32 µg/mL
- MIC [2]: > 32 µg/mL
- MIC (B. multivorans AU30441): 2 µg/mL (≈ 4.16 µM)
- MIC (B. multivorans AU11204): 4 µg/mL (≈ 8.32 µM)
- MIC (B. cenocepacia AU8635): > 32 µg/mL
- MIC (B. cepacia AU13163): 16 µg/mL (≈ 33.3 µM)
- MIC (B. multivorans AU16734): 16 µg/mL (≈ 33.3 µM)
- MIC (B. cenocepacia AU28111): 32 µg/mL (≈ 66.6 µM)
- MIC (B. contaminans AU20979): > 32 µg/mL
- MIC (B. contaminans AU15669): > 32 µg/mL
- MIC (B. multivorans AU25057): 8 µg/mL (≈ 16.6 µM)
- MIC (B. multivorans AU22892): 2 µg/mL (≈ 4.16 µM)

Compound: C[C@H]1COc2c(N3CCN(C)CC3)c(F)cc3c(=O)c(C(=O)O)cn1c23 [levofloxacin]
- MIC (B. ambifaria AU19862): 8 µg/mL (≈ 22.1 µM)
- MIC (B. ambifaria AU11161): 32 µg/mL (≈ 88.6 µM)
- MIC [1]: 8 µg/mL (≈ 22.1 µM)
- MIC (B. diffusa AU19637): 2 µg/mL (≈ 5.53 µM)
- MIC (B. cenocepacia AU10321): > 32 µg/mL
- MIC (B. multivorans AU11772): 8 µg/mL (≈ 22.1 µM)
- MIC (B. cenocepacia AU14093): > 32 µg/mL
- MIC (B. cenocepacia AU20902): 4 µg/mL (≈ 11.1 µM)
- MIC (B. multivorans AU14786): > 32 µg/mL
- MIC (B. multivorans AU23365): 8 µg/mL (≈ 22.1 µM)
- MIC (B. ambifaria AU20319): 1 µg/mL (≈ 2.77 µM)
- MIC [2]: > 32 µg/mL
- MIC (B. multivorans AU30441): 2 µg/mL (≈ 5.53 µM)
- MIC (B. multivorans AU11204): 2 µg/mL (≈ 5.53 µM)
- MIC (B. cenocepacia AU8635): > 32 µg/mL
- MIC (B. cepacia AU13163): 2 µg/mL (≈ 5.53 µM)
- MIC (B. multivorans AU16734): 8 µg/mL (≈ 22.1 µM)
- MIC (B. cenocepacia AU28111): 4 µg/mL (≈ 11.1 µM)
- MIC (B. contaminans AU20979): 32 µg/mL (≈ 88.6 µM)
- MIC (B. contaminans AU15669): 8 µg/mL (≈ 22.1 µM)
- MIC (B. multivorans AU25057): 8 µg/mL (≈ 22.1 µM)
- MIC (B. multivorans AU22892): 2 µg/mL (≈ 5.53 µM)

Compound: C[C@@H](O)[C@H]1C(=O)N2C(C(=O)O)=C(S[C@@H]3CN[C@H](C(=O)N(C)C)C3)[C@H](C)[C@H]12 [meropenem]
- MIC (B. ambifaria AU19862): 2 µg/mL (≈ 5.22 µM)
- MIC (B. ambifaria AU11161): 8 µg/mL (≈ 20.9 µM)
- MIC [1]: 8 µg/mL (≈ 20.9 µM)
- MIC (B. diffusa AU19637): 2 µg/mL (≈ 5.22 µM)
- MIC (B. cenocepacia AU10321): 16 µg/mL (≈ 41.7 µM)
- MIC (B. multivorans AU11772): 16 µg/mL (≈ 41.7 µM)
- MIC (B. cenocepacia AU14093): 8 µg/mL (≈ 20.9 µM)
- MIC (B. cenocepacia AU20902): 4 µg/mL (≈ 10.4 µM)
- MIC (B. multivorans AU14786): 16 µg/mL (≈ 41.7 µM)
- MIC (B. multivorans AU23365): 8 µg/mL (≈ 20.9 µM)
- MIC (B. ambifaria AU20319): 4 µg/mL (≈ 10.4 µM)
- MIC [2]: 8 µg/mL (≈ 20.9 µM)
- MIC (B. multivorans AU30441): 8 µg/mL (≈ 20.9 µM)
- MIC (B. multivorans AU11204): 2 µg/mL (≈ 5.22 µM)
- MIC (B. cenocepacia AU8635): 16 µg/mL (≈ 41.7 µM)
- MIC (B. cepacia AU13163): 4 µg/mL (≈ 10.4 µM)
- MIC (B. multivorans AU16734): 16 µg/mL (≈ 41.7 µM)
- MIC (B. cenocepacia AU28111): 4 µg/mL (≈ 10.4 µM)
- MIC (B. contaminans AU20979): 8 µg/mL (≈ 20.9 µM)
- MIC (B. contaminans AU15669): 16 µg/mL (≈ 41.7 µM)
- MIC (B. multivorans AU25057): 4 µg/mL (≈ 10.4 µM)
- MIC (B. multivorans AU22892): 4 µg/mL (≈ 10.4 µM)
